Consider five compounds from patent US9656996B2, “Fused heterocyclic compound, preparation method therefor, pharmaceutical composition, and uses thereof” (SHANGHAI YINGLI PHARMACEUTICAL CO., LTD., priority 2013, dated 2017).

Assay [1] deals with PI3Kα (Homo sapiens (Human), UniProt P42336). In words: PI3Kα enzymatic inhibitory activity IC50 assay. It is filed as biochemical. The following applies: selectivity ratio. As to the method:
(§1) 1. Buffer preparation: 50 mM HEPES, pH 7.5, 3 mM MgCl2, 1 mM EGTA, 100 mM NaCl, 0.03% CHAPS.
(§2) 2. The compound was formulated in 100% DMSO in a concentration gradient, and deposited to a 384-well plate with a final DMSO concentration of 1%.
(§3) 3. PI3Kα, PI3Kδ, PI3Kβ and PI3Kγ enzymes (purchased from EMD Millipore) were diluted to the optimal concentration with the following buffer: 50 mM HEPES, pH 7.5, 3 mM MgCl2, 1 mM EGTA, 100 mM NaCl, 0.03% CHAPS, 2 mM DTT, transferred to a 384-well plate and incubated with the compound for a certain time.
(§4) 4. The substrate was diluted to an optimal concentration with the following buffer: 50 mM HEPES, pH 7.5, 3 mM MgCl2, 1 mM EGTA, 100 mM NaCl, 0.03% CHAPS, 2 mM DTT, 50 μM PIP2, 25 μM ATP and added to the 384-well plate to initiate the reaction. PI3Kα, PI3Kβ and PI3Kγ were allowed to react for 1 h at room temperature, and PI3Kδ reacted for 2 hours at room temperature. Another 10 μL ADP-Glo Detection Reagent also needed to be added for PI3Kβ and PI3Kγ, and then equilibrated at room temperature for 30 minutes.
(§5) 5. Luminescence was read by using Flexstation, and the inhibition rate was calculated as the average value of two tests.

Assay [2] has as its target PI3Kδ (Homo sapiens (Human), UniProt O00329). The experiment in a line: PI3Kδ enzymatic inhibitory activity IC50 assay. It is filed as biochemical. The settings on record: luminescence readout, 25 μM ATP, 50 μM PIP2, 2 hours at room temperature. On the procedure: as §1, §2, §3, §4, §5
The subject of assay [3] is Raji cell TNF-α generation. In words: Inhibition of human Raji cell TNF-α generation induced by human IgM (ELISA). The following applies: Raji cells, IgM stimulation, 24 hours. It counts as cell-based. As to the method: 1. Raji cell line (human Burkitt's lymphoma origin) (ATCC, Cat#CCL-86) was used.
2. Raji cells were applied onto the 96-well plate with 1×10^5/well.
3. The compounds to be screened were diluted to the corresponding test concentration, and added to the cell culture system 30 minutes prior to IgM stimulation.
4. 10 µg/ml IgM monoclonal antibody (JACKSON, Cat#109-006-129) was added to the cell culture system in order to stimulate the cells generating TNF-α.
5. After 24 hours, the amount of TNF-α produced by the cell line was determined by ELISA.
6. The inhibition rates at each concentration of the compound were calculated and plotted to calculate 50% inhibition rate (IC50), and the specific results were shown in table 3.

Assay [4] has as its target PI3Kγ (Homo sapiens (Human), UniProt P48736). In words: PI3Kγ enzymatic inhibitory activity IC50 assay. It is filed as biochemical. The settings on record: selectivity ratio. As to the method: as §1, §2, §3, §4, §5
For assay [5], the target named is PI3Kβ (Homo sapiens (Human), UniProt P42338). In words: PI3Kβ enzymatic inhibitory activity IC50 assay. It counts as biochemical. The following applies: selectivity ratio. On the procedure:
as §1, §2, §3, §4, §5

Chain of PI3Kβ (P42338 whole entry, species assumed): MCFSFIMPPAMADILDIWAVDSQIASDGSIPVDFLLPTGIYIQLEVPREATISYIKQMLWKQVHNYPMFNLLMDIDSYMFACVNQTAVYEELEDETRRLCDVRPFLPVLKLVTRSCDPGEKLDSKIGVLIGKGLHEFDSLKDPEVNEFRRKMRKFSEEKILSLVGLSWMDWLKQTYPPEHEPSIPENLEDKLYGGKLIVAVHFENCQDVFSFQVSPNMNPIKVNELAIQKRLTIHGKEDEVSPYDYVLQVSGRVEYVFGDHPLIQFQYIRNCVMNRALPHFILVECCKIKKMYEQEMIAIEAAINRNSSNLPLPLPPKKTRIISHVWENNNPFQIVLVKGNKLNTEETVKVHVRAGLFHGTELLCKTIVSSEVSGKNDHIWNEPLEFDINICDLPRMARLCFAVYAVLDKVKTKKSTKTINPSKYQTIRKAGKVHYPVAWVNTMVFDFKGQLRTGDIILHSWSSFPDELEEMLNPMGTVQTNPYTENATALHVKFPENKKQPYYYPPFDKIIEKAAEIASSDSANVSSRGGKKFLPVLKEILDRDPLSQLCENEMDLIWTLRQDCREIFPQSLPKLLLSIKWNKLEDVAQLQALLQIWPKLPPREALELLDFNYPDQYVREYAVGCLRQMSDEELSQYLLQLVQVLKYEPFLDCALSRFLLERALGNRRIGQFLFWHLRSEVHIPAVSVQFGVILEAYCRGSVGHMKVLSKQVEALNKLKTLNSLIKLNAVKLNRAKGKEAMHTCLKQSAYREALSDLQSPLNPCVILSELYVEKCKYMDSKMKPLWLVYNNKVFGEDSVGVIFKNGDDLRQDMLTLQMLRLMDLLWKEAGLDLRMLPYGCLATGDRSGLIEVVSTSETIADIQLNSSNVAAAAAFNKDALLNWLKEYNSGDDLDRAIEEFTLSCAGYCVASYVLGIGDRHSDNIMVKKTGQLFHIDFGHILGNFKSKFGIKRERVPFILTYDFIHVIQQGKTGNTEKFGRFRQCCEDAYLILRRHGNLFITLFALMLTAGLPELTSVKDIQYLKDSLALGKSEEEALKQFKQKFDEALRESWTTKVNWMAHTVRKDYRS
Chain of PI3Kβ (P27986 whole entry partner, species assumed): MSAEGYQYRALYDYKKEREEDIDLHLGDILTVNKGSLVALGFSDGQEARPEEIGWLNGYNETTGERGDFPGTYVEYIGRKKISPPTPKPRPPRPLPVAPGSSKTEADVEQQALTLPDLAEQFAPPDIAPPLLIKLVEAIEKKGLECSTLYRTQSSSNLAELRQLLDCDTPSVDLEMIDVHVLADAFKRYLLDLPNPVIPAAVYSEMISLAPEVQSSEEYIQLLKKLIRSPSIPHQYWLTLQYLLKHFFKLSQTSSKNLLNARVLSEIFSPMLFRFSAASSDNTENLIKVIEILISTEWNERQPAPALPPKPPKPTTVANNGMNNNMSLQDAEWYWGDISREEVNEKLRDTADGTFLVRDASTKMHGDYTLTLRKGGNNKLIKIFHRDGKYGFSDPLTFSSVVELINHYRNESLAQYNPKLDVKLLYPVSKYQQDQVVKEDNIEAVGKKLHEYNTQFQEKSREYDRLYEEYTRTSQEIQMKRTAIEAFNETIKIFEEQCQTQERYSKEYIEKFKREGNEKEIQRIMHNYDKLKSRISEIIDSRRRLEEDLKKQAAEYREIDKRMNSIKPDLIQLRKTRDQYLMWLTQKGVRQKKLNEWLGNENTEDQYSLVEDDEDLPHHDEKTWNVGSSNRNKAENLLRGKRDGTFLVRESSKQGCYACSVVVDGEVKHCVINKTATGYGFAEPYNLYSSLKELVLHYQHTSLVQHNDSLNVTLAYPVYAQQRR
Chain of PI3Kδ (O00329 whole entry, species assumed): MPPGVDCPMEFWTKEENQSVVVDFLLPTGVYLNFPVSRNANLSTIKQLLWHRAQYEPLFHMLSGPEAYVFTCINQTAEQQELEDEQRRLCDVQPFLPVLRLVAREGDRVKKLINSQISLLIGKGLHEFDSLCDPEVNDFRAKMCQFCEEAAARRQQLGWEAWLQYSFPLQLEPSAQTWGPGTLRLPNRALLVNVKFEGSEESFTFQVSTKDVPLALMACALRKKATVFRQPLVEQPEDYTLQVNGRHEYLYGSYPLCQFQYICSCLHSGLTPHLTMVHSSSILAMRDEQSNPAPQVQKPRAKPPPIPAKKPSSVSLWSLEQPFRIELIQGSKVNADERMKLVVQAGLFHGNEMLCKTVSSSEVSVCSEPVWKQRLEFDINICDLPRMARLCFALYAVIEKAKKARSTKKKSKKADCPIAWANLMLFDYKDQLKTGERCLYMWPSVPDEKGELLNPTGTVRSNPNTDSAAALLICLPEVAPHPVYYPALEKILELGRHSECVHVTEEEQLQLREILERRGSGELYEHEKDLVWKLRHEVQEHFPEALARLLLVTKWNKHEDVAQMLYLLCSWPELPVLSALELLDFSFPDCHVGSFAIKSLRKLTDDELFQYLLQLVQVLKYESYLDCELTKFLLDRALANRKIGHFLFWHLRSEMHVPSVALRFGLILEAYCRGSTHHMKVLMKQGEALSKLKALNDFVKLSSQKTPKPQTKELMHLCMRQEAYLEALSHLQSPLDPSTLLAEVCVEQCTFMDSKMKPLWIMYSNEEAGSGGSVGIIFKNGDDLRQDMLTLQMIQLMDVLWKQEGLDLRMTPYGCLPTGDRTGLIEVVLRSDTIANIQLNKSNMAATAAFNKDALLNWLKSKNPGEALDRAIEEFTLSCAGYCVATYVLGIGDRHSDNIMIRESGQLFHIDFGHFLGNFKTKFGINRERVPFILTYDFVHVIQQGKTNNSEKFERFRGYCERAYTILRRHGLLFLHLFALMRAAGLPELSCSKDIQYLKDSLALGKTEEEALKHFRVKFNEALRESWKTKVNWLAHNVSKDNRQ
Chain of PI3Kδ (P27986 whole entry partner, species assumed): as the sequence (P27986 whole entry partner, species assumed) above
Chain of PI3Kα (P42336 whole entry, species assumed): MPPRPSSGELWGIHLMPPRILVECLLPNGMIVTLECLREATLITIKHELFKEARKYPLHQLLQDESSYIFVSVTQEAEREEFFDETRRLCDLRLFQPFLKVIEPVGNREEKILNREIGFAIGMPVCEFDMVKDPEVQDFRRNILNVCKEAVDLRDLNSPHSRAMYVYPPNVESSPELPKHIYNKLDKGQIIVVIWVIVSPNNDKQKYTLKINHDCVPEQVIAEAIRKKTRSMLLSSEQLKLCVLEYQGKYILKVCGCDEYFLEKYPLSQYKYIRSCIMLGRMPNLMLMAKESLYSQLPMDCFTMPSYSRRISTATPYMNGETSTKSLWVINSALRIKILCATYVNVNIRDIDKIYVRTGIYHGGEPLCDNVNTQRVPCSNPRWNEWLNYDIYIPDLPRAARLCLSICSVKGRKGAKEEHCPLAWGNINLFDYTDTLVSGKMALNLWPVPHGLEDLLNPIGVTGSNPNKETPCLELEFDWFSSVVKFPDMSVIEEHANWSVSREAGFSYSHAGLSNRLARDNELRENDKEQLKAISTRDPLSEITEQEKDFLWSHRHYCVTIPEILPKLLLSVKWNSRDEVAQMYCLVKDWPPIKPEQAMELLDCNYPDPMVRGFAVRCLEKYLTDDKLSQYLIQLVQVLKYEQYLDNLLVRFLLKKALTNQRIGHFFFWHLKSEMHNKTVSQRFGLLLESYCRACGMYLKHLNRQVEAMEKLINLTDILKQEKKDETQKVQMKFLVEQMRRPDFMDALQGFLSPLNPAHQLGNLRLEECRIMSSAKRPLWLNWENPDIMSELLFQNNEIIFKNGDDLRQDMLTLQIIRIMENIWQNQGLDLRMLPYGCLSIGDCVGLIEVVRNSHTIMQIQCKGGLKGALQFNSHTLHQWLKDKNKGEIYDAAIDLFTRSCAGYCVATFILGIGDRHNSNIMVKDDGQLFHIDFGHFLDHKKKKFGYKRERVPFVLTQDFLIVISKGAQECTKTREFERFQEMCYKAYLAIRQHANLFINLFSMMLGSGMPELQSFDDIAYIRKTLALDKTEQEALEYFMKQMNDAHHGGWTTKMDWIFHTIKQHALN
Chain of PI3Kα (P27986 whole entry partner, species assumed): as the sequence (P27986 whole entry partner, species assumed) above
Chain of PI3Kγ (P48736 whole entry, species assumed): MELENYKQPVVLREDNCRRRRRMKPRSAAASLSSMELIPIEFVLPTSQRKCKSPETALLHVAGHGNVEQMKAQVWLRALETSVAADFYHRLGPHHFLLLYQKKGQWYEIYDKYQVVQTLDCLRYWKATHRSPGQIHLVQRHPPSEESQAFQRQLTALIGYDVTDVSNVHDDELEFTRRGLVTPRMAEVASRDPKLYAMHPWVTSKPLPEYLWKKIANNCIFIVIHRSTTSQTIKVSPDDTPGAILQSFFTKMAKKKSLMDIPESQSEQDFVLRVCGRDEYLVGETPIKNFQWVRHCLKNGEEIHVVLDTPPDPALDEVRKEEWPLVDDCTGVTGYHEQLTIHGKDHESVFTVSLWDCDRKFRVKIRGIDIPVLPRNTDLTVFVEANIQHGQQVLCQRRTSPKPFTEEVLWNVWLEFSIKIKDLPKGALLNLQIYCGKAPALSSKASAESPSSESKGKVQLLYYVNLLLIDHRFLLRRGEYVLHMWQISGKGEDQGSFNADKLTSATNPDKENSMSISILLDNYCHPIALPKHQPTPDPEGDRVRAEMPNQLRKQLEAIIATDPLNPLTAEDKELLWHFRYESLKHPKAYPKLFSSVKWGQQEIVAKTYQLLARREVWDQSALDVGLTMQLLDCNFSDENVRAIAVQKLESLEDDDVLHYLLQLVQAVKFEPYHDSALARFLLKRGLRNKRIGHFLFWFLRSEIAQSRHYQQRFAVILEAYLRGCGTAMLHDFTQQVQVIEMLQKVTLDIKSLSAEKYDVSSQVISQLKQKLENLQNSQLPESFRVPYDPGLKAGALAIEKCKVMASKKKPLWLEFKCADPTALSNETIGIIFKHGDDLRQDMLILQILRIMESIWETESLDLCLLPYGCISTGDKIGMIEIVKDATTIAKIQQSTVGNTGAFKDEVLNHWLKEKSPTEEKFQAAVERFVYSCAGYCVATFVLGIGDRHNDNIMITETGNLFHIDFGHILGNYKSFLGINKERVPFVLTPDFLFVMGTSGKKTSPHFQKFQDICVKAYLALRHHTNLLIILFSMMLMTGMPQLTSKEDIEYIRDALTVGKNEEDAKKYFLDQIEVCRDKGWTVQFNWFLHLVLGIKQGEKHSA

With `COc1ncc(-c2nc(N3CCOCC3)nc3c(CN4CCC(N5CCCCC5=O)CC4)cc(F)cc23)cc1NS(C)(=O)=O` [Compound 23], in assay [1], the “α/δ (ratio of IC50 values against PI3Kα to PI3Kδ)” value is recorded as 79. Besides, the IC50 in assay [2] is 16 nM; in assay [3], 88.7 nM. The “γ/δ (ratio of IC50 values against PI3Kγ to PI3Kδ)” value in assay [4] is given as >625. Moreover, the “β/δ (ratio of IC50 values against PI3Kβ to PI3Kδ)” value in assay [5] was determined as 40.
On the same counts, the results for `COc1ncc(-c2nc(N3CCOCC3)nc3c(OC4CCC(N5CCCCC5)CC4)cc(F)cc23)cc1NS(C)(=O)=O` (stereo not shown) [Compound 35] are 227, 20 nM, 105 nM, >500 and 322.
On the same counts, the results for `COc1ncc(-c2nc(N3CCOCC3)c3sc(CN4CCC(N(C)C(C)C)CC4)c(C)c3n2)cc1NS(C)(=O)=O` [Compound 16] are 42, 15 nM, 20.1 nM, >650 and 341.
On the same counts, the results for `COc1ncc(-c2nc(N3CCOCC3)nc3c(OC4CCC(N5CCCCC5)CC4)cc(F)cc23)cc1NS(C)(=O)=O` (stereo not shown) [Compound 34] are 202, 18.2 nM, 66 nM, >549 and 360.
Regarding `COc1ncc(-c2nc(N3CCOCC3)nc3c(OC4CCC(N5CCCCC5)CC4)cc(F)cc23)cc1NS(C)(=O)=O` (stereo not shown) [Compound 36], the “α/δ (ratio of IC50 values against PI3Kα to PI3Kδ)” value in assay [1] is on record as 239. Moreover, the IC50 came out at 17 nM in assay [2] and 27 nM in assay [3]. In addition, the “γ/δ (ratio of IC50 values against PI3Kγ to PI3Kδ)” value in assay [4] is >588. Besides, the “β/δ (ratio of IC50 values against PI3Kβ to PI3Kδ)” value in assay [5] came out at 366.

A word on the IC50: it is the concentration needed to halve the response being measured. A lower IC50 goes with inhibition by little substance.
